Entries after “also recorded” stand apart in the source; their conditions may differ. Like-named read-outs stand apart in the source and are kept apart here.
How the values were obtained:
[1] = tested on: bovine trachea smooth muscle (BTSM) strips; assay: Bovine trachea smooth muscle (BTSM) strips, isometric tension measurements; conditions: for EC50: Bos taurus, relaxation of methacholine-pre-contracted BTSM strips, mean ± SEM, 3 determinations; for effect of the ß2-adrenoceptor antagonist propranolol on the relaxation of BTSM strips induced by the compound: 1 μM propranolol, 30 minutes prior (FIG. 4); for shift of the dose response curve for isoprenaline (isoprenaline-induced relaxation): BTSM strips pre-incubated with compound at 30 μM (FIG. 5); for contraction induced by methacholine: BTSM strips pre-incubated with compound at 30 μM, methacholine dose response curve (FIG. 6); for relaxation of methacholine-pre-contracted BTSM strips: accumulative doses 1-300 μM, strips pre-contracted with methacholine (FIG. 3); for isometric tension of BTSM strips at 30 μM: concentration of 30 μM
Procedure: (§1) For cell-based studies, the SUL compounds were dissolved in 0.9% NaCl as 1 mM stock solutions. For the isometric tension measurements, the SUL compounds were dissolved in 100% DMSO as 100 mM stock solution.
Assay 3: Bovein Trachea Smooth Muscle (BTSM) Strips and Isometric Tension Measurements
Isometric tension measurements were performed as described previously (Roscioni et al., 2011: Roscioni, Prins et al., 2011). BTSM strips were mounted for isometric recording in organ-baths, containing Krebs-Henseleit (KH) buffer, containing in mM: […], 25 NaHCO3, 5.5 glucose, 5.6 KCl, 1.18 MgSO4, 2.50 CaCl2, 1.28 NaH2PO4, pre-gasses with 5% of CO2 and 95% O2, pH 7.4. After dissection of the smooth muscle layer and careful removal of connective tissue, BTSM strips of approximately 1 cm length and 2 mm width were prepared. Tissue strips were cultured in DMEM supplemented with non-essential amino acid mixture (1:100), sodium pyruvate (1 mM), gentamicin (45 μg*ml−1), penicillin (100 U*ml−1), streptomycin 100 μg*ml−1, amphotericin B (1.5 μg*ml−1) apo-transferrin (5 μg*ml−1) and ascorbic acid (100 μM). The BTSM strips were cultured for 1-3 days before isometric tension measurement in an Innova 4000 incubator shaker 37° C. 55 rpm).
For isometric tension measurements (Roscioni et al., 2011: Roscioni, Prins et al., 2011). BTSM strips were calibrated, were mounted into the transducers and submerged into the organ baths in pre-gassed KH buffer. Each strip was adjusted to a basal tension of 3 gram. Then, the strips were washed, equilibrated again for 60 minutes, followed by pre-contractions induced by 1×10-3.5 μM methacholine. To analyze acute effects of the SUL-compounds on the isometric tension, the strips were incubated with accumulative doses of the SUL-compounds (1-300 μM), followed by the addition of 0.01 μM isoprenaline.
To analyze potential role of the ß2-AR in the effects induced by the SUL-compounds, the strips were incubated with 1 μM propranonol for 30 minutes prior addition of the SUL-compounds. To analyze potential effects of the SUL-compounds on the isoprenaline-induced relaxation, the strips were first incubated with the SUL-compounds (30 μM each), followed by the addition of accumulative doses of isoprenaline (1×10.5-1 μM). Finally, to analyze potential effects of the SUL-compounds on the methacholine-induced contraction, the strips were first incubated with the SUL-compounds (30 μM each), followed by addition of accumulative doses of methacholine (0.001-30 μM), before the addition of 0.01 μM isoprenaline.
Data are shown are mean±standard error of the mean. One-way ANOVA followed by Bonferroni post hoc test, 2-tailed paired t-test, two-way ANOVA was used when appropriate to identify statistical difference between means. A statistical difference was defined as significant at p<0.05.

[2] = tested on: IL-8 release from hTERT cells; assay: Release of interleukin-8 (IL-8) from hTERT cells exposed to CSE; type: cell-based, human; conditions: 24 hours, 15% CSE, ELISA (FIG. 2)
Text: (§2) In this example, the effects of […] H2S compounds, i.e. SUL90, SUL121 were studied on: • 1) The cell viability of human (immortalized) airway smooth muscle cells (hTERT cells), • 2) The release of the inflammation mediator IL-8 from hTERT cells, • 3) Airway smooth muscle contractility of bovine trachea smooth muscle strips. The samples used were: • Two SUL-compounds: SUL90, SUL121; • Human telomerase reverse transcriptase immortalized airway smooth muscles (hTERT) cells, cultured as previously described (Oldenburger et al., 2012). Prior to the experiments, cells were serum-deprived for 1 day, followed by cell treatment with the indicated concentrations of the SUL-compounds in the absence and presence of 15% cigarette smoke extract (CSE) for additional 24 hours. As controls, 1 μM fenoterol and 500 μM of the H2S donor NaHS were used. • 100% cigarette smoke extract (CSE), freshly made by combusting (Watson Marlow 323 E/D, Rotterdam, The Netherlands) the smoke of two research cigarettes (University of Kentucky 2R4F) through 25 mL of DMEM (FBS-free) at a speed of approximately 1 cigarette/5 minutes. Afterwards, CSE was diluted to 15% (Oldenburger et al., 2012).
as §1
Assay 2: Release of interleukin-8 (IL-8) from hTERT Cells
This assay was used to determine the release of interleukin-8 from hTERT cells, fenoterol (1 μM) and the H2S donor (500 μM) served as controls. 24 hours after cell stimulation with the indicated concentrations of the SUL-compounds in the absence and presence of 15% CSW, culture medium was collected to measure the IL-8 concentration in the cell supernatants according to the manufacturer's instructions (PeliKine Compact ELISA kit, Sanquin, The Netherlands), as previously described (Oldenburger et al., 2012.

[3] = tested on: hTERT cells; assay: Trypan blue cell counting (cell viability); type: cell-based, human; conditions: 24 hours, absence or presence of 15% CSE, trypan blue counting (FIG. 1)
Text: as §2, §1
Assay 1: Trypan Blue Cell Counting
For cell viability measurements, trypan blue cell counting was performed as previously described (Oldenburger et al., 2012). As control, 500 μM of the H2S donor NaHS was used. Alternatively, alamar blue measurements were performed to determine cell viability essentially as described before (Oldenburger et al., 2012).
Briefly, hTERT cells were plated on 24-well plates as a cell density of 10,000 cells/well. Again cells were serum-deprived for 1 day, followed by cell treatment with the indicated concentrations of the SUL-compounds in the absence and presence of 15% cigarette smoke extract (CSE) for additional 24 hours.

[4] = 1 μM propranolol pre-incubation, read-out: pD2, Propranolol (converted)
[5] = solvent treated, read-out: pD2, Solvent (converted)

Structure (SMILES)	EC50 [1, 4]	EC50 [1, 5]	effect of the ß2-adrenoceptor antagonist propranolol on the relaxation of BTSM strips induced by the compound [1]	shift of the dose response curve for isoprenaline (isoprenaline-induced relaxation) [1]	contraction induced by methacholine [1]	relaxation of methacholine-pre-contracted BTSM strips [1]	isometric tension of BTSM strips at 30 μM [1]	CSE-induced IL-8 release from hTERT cells [2]	other results
Cc1c(C)c2c(c(C)c1O)CCC(C)(C(=O)N1CCNCC1)O2 (centres unmarked) [Sul-121, (6-hydroxy-2,5,7,8-tetramethylchroman-2-yl)(piperazin-1-yl)methanone]	316 µM	316 µM	not affected by propranolol; also recorded: does not alter the relaxation	significant right-ward shift; also recorded: shifts the dose response curve or isoprenaline to the right	decrease the contraction	even more pronounced relaxation, reaching statistical significance; also recorded: induce relaxation	leave the isometric tension unaffected	significantly reduce the release; also recorded: inhibit CSE-induced IL-8 release	effect of the ß2-adrenoceptor antagonist propranolol on the relaxation of BTSM strips induced by the compound ([1]; listed as SUL121): ß2-adrenoceptor-independent; shift of the dose response curve for isoprenaline (isoprenaline-induced relaxation) ([1]; listed as SUL212): right-ward shift; contraction induced by methacholine ([1]; listed as SUL121): significantly reduce the contraction; contraction induced by methacholine ([1]; listed as Sul121): reduced the contraction; CSE-induced IL-8 release from hTERT cells ([2]; listed as SUL121): inhibit the cellular IL-8 release; cell viability of hTERT cells ([3]; listed as SUL121): do not severely alter cell viability; cell viability of hTERT cells ([3]; listed as SUL-121): seem not to severely alter the cell viability
Cc1c(C)c2c(c(C)c1O)CCC(C)(C(=O)N1CCN(CC(=O)O)CC1)O2 (centres unmarked) [Sul-136, 2-(4-(6-hydroxy-2,5,7,8-tetramethylchroman-2-carbonyl)piperazin-1-yl)acetic acid]	–	–	–	–	–	do not alter the contractile tone	–	–	cell viability of hTERT cells [3]: do not alter cell viability
CC(C)NCC(O)COc1cccc2ccccc12 (centres unmarked) [propranolol, reference compound]	–	–	–	–	–	–	–	–	shift of the dose-response curve for isoprenaline by propranolol ([1]; BTSM strips pre-incubated with 1 μM propranolol (FIG. 4)): right-ward shift

Continued, in another order:

EC50 [1, 4]	EC50 [1, 5]	Structure (SMILES)	effect of the ß2-adrenoceptor antagonist propranolol on the relaxation of BTSM strips induced by the compound [1]	shift of the dose response curve for isoprenaline (isoprenaline-induced relaxation) [1]	contraction induced by methacholine [1]	relaxation of methacholine-pre-contracted BTSM strips [1]	isometric tension of BTSM strips at 30 μM [1]	CSE-induced IL-8 release from hTERT cells [2]	other results
3.98 µM	0.02 µM	CC(C)NCC(O)c1ccc(O)c(O)c1 (centres unmarked) [Isoprenaline, reference compound]	–	–	–	–	–	–	–
316 µM	398 µM	Cc1c(C)c2c(c(C)c1O)CCC(C)(C(=O)NO)O2 (centres unmarked) [Sul-90, N,6-dihydroxy-2,5,7,8-tetramethylchroman-2-carboxamide]	trend to a left-ward shift; also recorded: does not alter the relaxation	not	reduced the contraction; also recorded: decrease the contraction	shows a trend to induce relaxation	leave the isometric tension unaffected	significantly reduce the release; also recorded: inhibit CSE-induced IL-8 release	effect of the ß2-adrenoceptor antagonist propranolol on the relaxation of BTSM strips induced by the compound ([1]; listed as SUL90): ß2-adrenoceptor-independent; effect of the ß2-adrenoceptor antagonist propranolol on the relaxation of BTSM strips induced by the compound ([1]; listed as Sul90): not affected by propranolol; contraction induced by methacholine ([1]; listed as SUL90): significantly reduce the contraction; concentrations at which a trend to relaxation of BTSM strips is shown ([1]; methacholine-pre-contracted BTSM strips (FIG. 3)): higher than 100 μM; CSE-induced IL-8 release from hTERT cells ([2]; listed as SUL90): inhibit the cellular IL-8 release; cell viability of hTERT cells ([3]; listed as SUL90): do not severely alter cell viability; cell viability of hTERT cells ([3]; listed as SUL-90): seem not to severely alter the cell viability
